# Measured values: PubChem BioAssay AID1845206 (Molecular Pharmacology Branch, DTP, NCI, 2023)
# Where “and” joins values, the source holds several entries; their conditions need not be identical. Identical values can stand only once. Calls of active or inactive are those of the source. Rule for the calls: active = viability on the fitted dose curve at most 10% of control; inactive = the rest.
# Tested on: NCI-H1618 multicellular tumor spheroid viability
# Test: Anticancer human tumor NCI-H1618 cell line growth inhibition;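 note: spheroids exposed to agents for 7 days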
# Conditions: for viability, T/C: stronger effect = lower value
# How it was run: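 Single agents and combinations were tested on spheroids built from tumor cells plus HUVEC and hMSC, at half-log dilutions starting at or near clinical Cmax, else 10 microM; final DMSO 0.25% (v/v).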
# [1] = curve of first compound, second compound 30 pM
# [2] = curve of first compound, second compound 94.9 pM
# [3] = curve of first compound, second compound 0.0003 µM
# [4] = curve of first compound, second compound 0.000949 µM
# [5] = curve of first compound, second compound 0.003 µM
# [6] = second compound 30 pM, first compound 0.00949 µM
# [7] = second compound 30 pM, first compound 0.03 µM
# [8] = second compound 30 pM, first compound 0.0949 µM
# [9] = second compound 30 pM, first compound 0.3 µM
# [10] = second compound 30 pM, first compound 0.949 µM
# [11] = second compound 30 pM, first compound 3 µM
# [12] = second compound 94.9 pM, first compound 0.00949 µM
# [13] = second compound 94.9 pM, first compound 0.03 µM
# [14] = second compound 94.9 pM, first compound 0.0949 µM
# [15] = second compound 94.9 pM, first compound 0.3 µM
# [16] = second compound 94.9 pM, first compound 0.949 µM
# [17] = second compound 94.9 pM, first compound 3 µM
# [18] = second compound 0.0003 µM, first compound 0.00949 µM
# [19] = second compound 0.0003 µM, first compound 0.03 µM
# [20] = second compound 0.0003 µM, first compound 0.0949 µM
# [21] = second compound 0.0003 µM, first compound 0.3 µM
# [22] = second compound 0.0003 µM, first compound 0.949 µM
# [23] = second compound 0.0003 µM, first compound 3 µM
# [24] = second compound 0.000949 µM, first compound 0.00949 µM
# [25] = second compound 0.000949 µM, first compound 0.03 µM
# [26] = second compound 0.000949 µM, first compound 0.0949 µM
# [27] = second compound 0.000949 µM, first compound 0.3 µM
# [28] = second compound 0.000949 µM, first compound 0.949 µM
# [29] = second compound 0.000949 µM, first compound 3 µM
# [30] = second compound 0.003 µM, first compound 0.00949 µM
# [31] = second compound 0.003 µM, first compound 0.03 µM
# [32] = second compound 0.003 µM, first compound 0.0949 µM
# [33] = second compound 0.003 µM, first compound 0.3 µM
# [34] = second compound 0.003 µM, first compound 0.949 µM
# [35] = second compound 0.003 µM, first compound 3 µM
# [36] = curve of first compound, second compound 1 µM
# [37] = curve of first compound, second compound 3.16 µM
# [38] = curve of first compound, second compound 10 µM
# [39] = curve of first compound, second compound 31.6 µM
# [40] = curve of first compound, second compound 100 µM
# [41] = second compound 1 µM, first compound 0.0316 µM
# [42] = second compound 1 µM, first compound 0.1 µM
# [43] = second compound 1 µM, first compound 0.316 µM
# [44] = second compound 1 µM, first compound 1 µM
# [45] = second compound 1 µM, first compound 3.16 µM
# [46] = second compound 1 µM, first compound 10 µM
# [47] = second compound 3.16 µM, first compound 0.0316 µM
# [48] = second compound 3.16 µM, first compound 0.1 µM
# [49] = second compound 3.16 µM, first compound 0.316 µM
# [50] = second compound 3.16 µM, first compound 1 µM
# [51] = second compound 3.16 µM, first compound 3.16 µM
# [52] = second compound 3.16 µM, first compound 10 µM
# [53] = second compound 10 µM, first compound 0.0316 µM
# [54] = second compound 10 µM, first compound 0.1 µM
# [55] = second compound 10 µM, first compound 0.316 µM
# [56] = second compound 10 µM, first compound 1 µM
# [57] = second compound 10 µM, first compound 3.16 µM
# [58] = second compound 10 µM, first compound 10 µM
# [59] = second compound 31.6 µM, first compound 0.0316 µM
# [60] = second compound 31.6 µM, first compound 0.1 µM
# [61] = second compound 31.6 µM, first compound 0.316 µM
# [62] = second compound 31.6 µM, first compound 1 µM
# [63] = second compound 31.6 µM, first compound 3.16 µM
# [64] = second compound 31.6 µM, first compound 10 µM
# [65] = second compound 100 µM, first compound 0.0316 µM
# [66] = second compound 100 µM, first compound 0.1 µM
# [67] = second compound 100 µM, first compound 0.316 µM
# [68] = second compound 100 µM, first compound 1 µM
# [69] = second compound 100 µM, first compound 3.16 µM
# [70] = second compound 100 µM, first compound 10 µM
compound,measurement,setting,value
Cc1sc2c(c1C)C(c1ccc(Cl)cc1)=NC(CC(=O)Nc1ccc(O)cc1)c1nnc(C)n1-2 (centres undefined) + COc1cc2c(cc1O)CCNC21CSC2c3c(OC(C)=O)c(C)c4c(c3C(COC1=O)N1C(O)C3Cc5cc(C)c(OC)c(O)c5C(C21)N3C)OCO4,IC50,[1],275 nM
same,IC50,[2],157 nM
same,IC50,[3],< 9.49 nM
same,IC50,[4],< 9.49 nM
same,IC50,[5],< 9.49 nM
same,"viability, T/C",[6],86.2%
same,"viability, T/C",[7],116%
same,"viability, T/C",[8],93.5%
same,"viability, T/C",[9],45.9%
same,"viability, T/C",[10],11.1%
same,"viability, T/C",[11],2.15%
same,"viability, T/C",[12],72.2%
same,"viability, T/C",[13],84.4%
same,"viability, T/C",[14],63.9%
same,"viability, T/C",[15],29.9%
same,"viability, T/C",[16],3.78%
same,"viability, T/C",[17],1.08%
same,"viability, T/C",[18],22.7%
same,"viability, T/C",[19],2.53%
same,"viability, T/C",[20],10.2%
same,"viability, T/C",[21],11.7%
same,"viability, T/C",[22],0.74%
same,"viability, T/C",[23],0.78%
same,"viability, T/C",[24],4.7%
same,"viability, T/C",[25],2.6%
same,"viability, T/C",[26],1.78%
same,"viability, T/C",[27],0.74%
same,"viability, T/C",[28],0.65%
same,"viability, T/C",[29],0.37%
same,"viability, T/C",[30],2.16%
same,"viability, T/C",[31],2.42%
same,"viability, T/C",[32],0.82%
same,"viability, T/C",[33],0.41%
same,"viability, T/C",[34],0.26%
same,"viability, T/C",[35],0.46%
CNCc1ccc(-c2cc(-c3nc(-c4ccc(S(=O)(=O)C(C)C)cc4)cnc3N)on2)cc1 + COc1cc2c(cc1O)CCNC21CSC2c3c(OC(C)=O)c(C)c4c(c3C(COC1=O)N1C(O)C3Cc5cc(C)c(OC)c(O)c5C(C21)N3C)OCO4,IC50,[1],224 nM
same,IC50,[2],130 nM
same,IC50,[3],< 9.49 nM
same,IC50,[4],< 9.49 nM
same,IC50,[5],< 9.49 nM
same,"viability, T/C",[6],103%
same,"viability, T/C",[7],100%
same,"viability, T/C",[8],110%
same,"viability, T/C",[9],31.5%
same,"viability, T/C",[10],5.25%
same,"viability, T/C",[11],3.91%
same,"viability, T/C",[12],98.5%
same,"viability, T/C",[13],93.6%
same,"viability, T/C",[14],59.5%
same,"viability, T/C",[15],22.3%
same,"viability, T/C",[16],2.88%
same,"viability, T/C",[17],2.64%
same,"viability, T/C",[18],11.2%
same,"viability, T/C",[19],17.8%
same,"viability, T/C",[20],58.8%
same,"viability, T/C",[21],12.6%
same,"viability, T/C",[22],2.49%
same,"viability, T/C",[23],4.13%
same,"viability, T/C",[24],3.91%
same,"viability, T/C",[25],15.3%
same,"viability, T/C",[26],6.24%
same,"viability, T/C",[27],3.07%
same,"viability, T/C",[28],3.69%
same,"viability, T/C",[29],2.71%
same,"viability, T/C",[30],3.93%
same,"viability, T/C",[31],6.21%
same,"viability, T/C",[32],4.41%
same,"viability, T/C",[33],3.43%
same,"viability, T/C",[34],2.55%
same,"viability, T/C",[35],0.78%
[2H]c1nc(C)nc([2H])c1-c1cc(NC[C@@H](C)c2cccc3c(C(=O)NC)ccnc23)ncn1,"viability, T/C",compound 0.0316 µM,97% and 100% and 12.9%
same,"viability, T/C",compound 0.1 µM,98.5% and 98% and 8.24%
same,outcome,compound 0.316 µM,inactive
same,"viability, T/C",compound 0.316 µM,101% and 117%
same,"viability, T/C",compound 1 µM,96.4% and 101% and 142%
same,"viability, T/C",compound 3.16 µM,88.6% and 94% and 106%
same,"viability, T/C",compound 10 µM,97.2% and 102% and 91.8%
Cc1cc(C)c(CNC(=O)c2cc(-c3ccc(CN4CCOCC4)cc3)cc3c2cnn3C2CCCC2)c(=O)[nH]1 + Cn1nnc2c(C(N)=O)ncn2c1=O,IC50,[36],> 10000 nM
same,IC50,[37],< 31.6 nM
same,IC50,[38],< 31.6 nM
same,IC50,[39],< 31.6 nM
same,IC50,[40],< 31.6 nM
same,"viability, T/C",[41],88.9%
same,"viability, T/C",[42],82.9%
same,"viability, T/C",[43],89.8%
same,outcome,[44],inactive
same,"viability, T/C",[45],82.3%
same,"viability, T/C",[46],78.8%
same,"viability, T/C",[47],24.3%
same,"viability, T/C",[48],13.1%
same,"viability, T/C",[49],16.6%
same,"viability, T/C",[50],22%
same,"viability, T/C",[51],14.7%
same,"viability, T/C",[52],19.3%
same,"viability, T/C",[53],4.25%
same,"viability, T/C",[54],19.8%
same,"viability, T/C",[55],10.5%
same,"viability, T/C",[56],3.64%
same,"viability, T/C",[57],5.17%
same,"viability, T/C",[58],4.06%
same,"viability, T/C",[59],18.2%
same,"viability, T/C",[60],20.3%
same,"viability, T/C",[61],20.4%
same,"viability, T/C",[62],5.16%
same,"viability, T/C",[63],13.7%
same,"viability, T/C",[64],12%
same,"viability, T/C",[65],34.9%
same,"viability, T/C",[66],63.6%
same,"viability, T/C",[67],52.6%
same,"viability, T/C",[68],46.8%
same,"viability, T/C",[69],66.2%
same,"viability, T/C",[70],44.2%
COc1cc(C)[nH]c(=O)c1CN1CCc2c(Cl)cc(C(OC)C3COC3)c(Cl)c2C1=O (centres undefined) + Cn1nnc2c(C(N)=O)ncn2c1=O,IC50,[36],> 10000 nM
same,IC50,[37],< 31.6 nM
same,IC50,[38],< 31.6 nM
same,IC50,[39],< 31.6 nM
same,IC50,[40],< 31.6 nM
same,outcome,[41],inactive
same,"viability, T/C",[42],77.7%
same,outcome,[43],inactive
same,outcome,[44],inactive
same,"viability, T/C",[45],69.6%
same,"viability, T/C",[46],72.8%
same,"viability, T/C",[47],14.2%
same,"viability, T/C",[48],16.2%
same,"viability, T/C",[49],20.3%
same,"viability, T/C",[50],10.3%
same,"viability, T/C",[51],15.8%
same,"viability, T/C",[52],15.4%
same,"viability, T/C",[53],3.15%
same,"viability, T/C",[54],6.34%
same,"viability, T/C",[55],4.96%
same,"viability, T/C",[56],18.4%
same,"viability, T/C",[57],3.33%
same,"viability, T/C",[58],4.36%
same,"viability, T/C",[59],6.62%
same,"viability, T/C",[60],13.3%
same,"viability, T/C",[61],3.61%
same,"viability, T/C",[62],5.57%
same,"viability, T/C",[63],10.4%
same,"viability, T/C",[64],13%
same,"viability, T/C",[65],45.3%
same,"viability, T/C",[66],41.6%
same,"viability, T/C",[67],29.8%
same,"viability, T/C",[68],39.6%
same,"viability, T/C",[69],18.3%
same,"viability, T/C",[70],45.1%
CC[C@@]1(O)C(=O)OCc2c1cc1n(c2=O)Cc2cc3c(CN(C)C)c(O)ccc3nc2-1,"viability, T/C",compound 0.3 µM,1.94% [middle of 9 runs]
same,IC50,"compound alone, run of 11/07/2019",9.37 nM [middle of 5 runs]
